Test results as given in PubChem BioAssay (NCI).
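Exposure lasted 48 hours, with cells grown in 96-well plates and compounds tested at five concentrations. GI50 marks 50% less growth. TGI marks complete inhibition of growth.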

Experiments:
Assay in all cases: DTP human tumour cell line panel, 48 h
[1] = tested on: 786-0 renal
[2] = tested on: A498 renal
[3] = tested on: A549 NSCLC
[4] = tested on: ACHN renal
[5] = tested on: BT-549 breast
[6] = tested on: CAKI-1 renal
[7] = tested on: CCRF-CEM leukemia
[8] = tested on: COLO 205 colon
[9] = tested on: EKVX NSCLC
[10] = tested on: HCC-2998 colon
[11] = tested on: HCT-116 colon
[12] = tested on: HCT-15 colon
[13] = tested on: HL-60(TB) leukemia
[14] = tested on: HOP-62 NSCLC
[15] = tested on: HOP-92 NSCLC
[16] = tested on: HS 578T breast
[17] = tested on: HT29 colon
[18] = tested on: IGROV1 ovarian
[19] = tested on: K-562 leukemia
[20] = tested on: KM12 colon
[21] = tested on: LOX IMVI melanoma
[22] = tested on: M14 melanoma
[23] = tested on: MALME-3M melanoma
[24] = tested on: MCF7 breast
[25] = tested on: MDA-MB-231 breast
[26] = tested on: MOLT-4 leukemia
[27] = tested on: NCI-H226 lung
[28] = tested on: NCI-H23 lung
[29] = tested on: NCI-H460 lung
[30] = tested on: NCI-H522 lung
[31] = tested on: OVCAR-3 ovarian
[32] = tested on: OVCAR-4 ovarian
[33] = tested on: OVCAR-5 ovarian
[34] = tested on: OVCAR-8 ovarian
[35] = tested on: PC-3 prostate
[36] = tested on: RPMI-8226 leukemia
[37] = tested on: RXF 393 renal
[38] = tested on: SF-268 CNS
[39] = tested on: SF-295 CNS
[40] = tested on: SF-539 CNS
[41] = tested on: SK-MEL-2 melanoma
[42] = tested on: SK-MEL-28 melanoma
[43] = tested on: SK-MEL-5 melanoma
[44] = tested on: SK-OV-3 ovarian
[45] = tested on: SN12C renal
[46] = tested on: SNB-19 CNS
[47] = tested on: SNB-75 CNS
[48] = tested on: SR leukemia
[49] = tested on: SW-620 colon
[50] = tested on: T-47D breast
[51] = tested on: TK-10 renal
[52] = tested on: U251 CNS
[53] = tested on: UACC-257 melanoma
[54] = tested on: UACC-62 melanoma
[55] = tested on: UO-31 renal
[56] = tested on: DU-145 prostate
[57] = tested on: MDA-MB-435
[58] = tested on: NCI/ADR-RES ovarian

COc1ccc(/C=C(\C#N)c2cc(OC)c(OC)c(OC)c2)cc1
GI50 [1]: 0.0309 µM
TGI [1]: 34.6 µM
GI50 [2]: 0.0123 µM
TGI [2]: 1.58 µM
GI50 [3]: 0.0288 µM
TGI [3]: > 75.2 µM
GI50 [4]: 0.0478 µM
TGI [4]: > 100 µM
GI50 [5]: 0.0282 µM
TGI [5]: 0.0883 µM
GI50 [6]: 0.0209 µM
TGI [6]: > 100 µM
GI50 [7]: 0.0361 µM
TGI [7]: > 43.5 µM
GI50 [8]: 0.011 µM
TGI [8]: 0.0251 µM
GI50 [9]: 0.0656 µM
TGI [9]: > 100 µM
GI50 [10]: 0.0283 µM
TGI [10]: 1.25 µM
GI50 [11]: 0.0161 µM
TGI [11]: > 100 µM
GI50 [12]: 0.0359 µM
TGI [12]: > 100 µM
GI50 [13]: 0.0244 µM
TGI [13]: 0.0661 µM
GI50 [14]: < 0.0184 µM
TGI [14]: > 100 µM
GI50 [15]: 0.277 µM
TGI [15]: 25.1 µM
GI50 [16]: 0.0359 µM
TGI [16]: > 100 µM
GI50 [17]: 0.0251 µM
TGI [17]: 17.8 µM
GI50 [18]: 0.0432 µM
TGI [18]: > 100 µM
GI50 [19]: < 0.01 µM
TGI [19]: > 100 µM
GI50 [20]: < 0.01 µM
TGI [20]: > 100 µM
GI50 [21]: 0.0258 µM
TGI [21]: > 100 µM
GI50 [22]: 0.0269 µM
TGI [22]: > 100 µM
GI50 [23]: 21.3 µM
TGI [23]: > 100 µM
GI50 [24]: 0.0272 µM
TGI [24]: > 50.3 µM
GI50 [25]: 0.0483 µM
TGI [25]: > 100 µM
GI50 [26]: 0.0391 µM
TGI [26]: 6.85 µM
GI50 [27]: 0.0252 µM
TGI [27]: 0.0706 µM
GI50 [28]: 0.0242 µM
TGI [28]: > 100 µM
GI50 [29]: 0.0327 µM
TGI [29]: 23.6 µM
GI50 [30]: < 0.01 µM
TGI [30]: 0.0268 µM
GI50 [31]: < 0.014 µM
TGI [31]: 0.0322 µM
GI50 [32]: 0.0297 µM
TGI [32]: > 100 µM
GI50 [33]: 0.0424 µM
TGI [33]: > 100 µM
GI50 [34]: 0.0293 µM
TGI [34]: > 82.8 µM
GI50 [35]: 0.0308 µM
TGI [35]: > 87.1 µM
GI50 [36]: 0.0483 µM
TGI [36]: 27 µM
GI50 [37]: < 0.0141 µM
TGI [37]: > 90.7 µM
GI50 [38]: 0.0481 µM
TGI [38]: > 100 µM
GI50 [39]: < 0.0156 µM
TGI [39]: 50.7 µM
GI50 [40]: 0.0199 µM
TGI [40]: > 100 µM
GI50 [41]: 0.0356 µM
TGI [41]: > 100 µM
GI50 [42]: 0.0634 µM
TGI [42]: > 100 µM
GI50 [43]: 0.0182 µM
TGI [43]: 0.0644 µM
GI50 [44]: < 0.0138 µM
TGI [44]: 0.221 µM
GI50 [45]: 0.0486 µM
TGI [45]: > 100 µM
GI50 [46]: 0.0558 µM
TGI [46]: > 100 µM
GI50 [47]: 0.0297 µM
TGI [47]: > 100 µM
GI50 [48]: < 0.01 µM
GI50 [49]: 0.0282 µM
TGI [49]: > 100 µM
GI50 [50]: 0.672 µM
TGI [50]: 61.8 µM
TGI [51]: > 100 µM
GI50 [52]: 0.0359 µM
TGI [52]: > 100 µM
GI50 [53]: 0.012 µM
TGI [53]: > 100 µM
GI50 [54]: 0.0103 µM
TGI [54]: > 100 µM
GI50 [55]: 0.0389 µM
TGI [55]: 58.6 µM

COC(=O)N[C@@H](C)CNc1nccc(-c2cn(C(C)C)nc2-c2cc(Cl)cc(NS(C)(=O)=O)c2F)n1
GI50 [1]: 14.2 µM
TGI [1]: > 100 µM
GI50 [2]: 0.336 µM
TGI [2]: > 100 µM
GI50 [3]: 48.2 µM
TGI [3]: > 100 µM
GI50 [4]: 1.03 µM
TGI [4]: > 100 µM
GI50 [5]: > 100 µM
TGI [5]: > 100 µM
GI50 [6]: 4.95 µM
TGI [6]: > 100 µM
GI50 [7]: 38.2 µM
TGI [7]: > 100 µM
GI50 [8]: < 0.01 µM
TGI [8]: > 100 µM
GI50 [56]: > 93 µM
TGI [56]: > 100 µM
GI50 [10]: 30.9 µM
TGI [10]: > 100 µM
GI50 [11]: 0.662 µM
TGI [11]: > 100 µM
GI50 [12]: 7.46 µM
TGI [12]: > 100 µM
GI50 [13]: 0.741 µM
TGI [13]: > 57.9 µM
GI50 [14]: > 100 µM
TGI [14]: > 100 µM
GI50 [16]: 0.599 µM
TGI [16]: > 100 µM
GI50 [17]: < 0.01 µM
TGI [17]: > 100 µM
GI50 [18]: 0.678 µM
TGI [18]: > 100 µM
GI50 [19]: 33.6 µM
TGI [19]: > 100 µM
GI50 [20]: 70.1 µM
TGI [20]: > 100 µM
GI50 [21]: 0.268 µM
TGI [21]: > 100 µM
GI50 [22]: < 0.01 µM
GI50 [24]: 98.5 µM
TGI [24]: > 100 µM
GI50 [25]: 5.72 µM
TGI [25]: > 100 µM
GI50 [57]: < 0.01 µM
TGI [57]: > 100 µM
GI50 [26]: 50.9 µM
TGI [26]: > 100 µM
GI50 [27]: > 100 µM
TGI [27]: > 100 µM
GI50 [28]: > 51.3 µM
TGI [28]: > 100 µM
GI50 [30]: > 55.2 µM
TGI [30]: > 100 µM
GI50 [58]: > 100 µM
TGI [58]: > 100 µM
GI50 [31]: 62.8 µM
TGI [31]: > 100 µM
GI50 [32]: > 100 µM
TGI [32]: > 100 µM
GI50 [33]: > 39.2 µM
TGI [33]: > 100 µM
GI50 [34]: > 100 µM
TGI [34]: > 100 µM
GI50 [35]: > 100 µM
TGI [35]: > 100 µM
GI50 [36]: > 70 µM
TGI [36]: > 100 µM
GI50 [37]: 0.623 µM
TGI [37]: 23.3 µM
GI50 [38]: > 100 µM
TGI [38]: > 100 µM
GI50 [39]: 55.7 µM
TGI [39]: > 100 µM
GI50 [40]: 62.6 µM
TGI [40]: > 100 µM
GI50 [43]: > 100 µM
TGI [43]: > 100 µM
GI50 [44]: 0.363 µM
TGI [44]: > 100 µM
GI50 [45]: > 100 µM
TGI [45]: > 100 µM
GI50 [46]: > 100 µM
TGI [46]: > 100 µM
GI50 [47]: 0.51 µM
TGI [47]: > 100 µM
GI50 [48]: 25.6 µM
TGI [48]: > 84.7 µM
GI50 [49]: 12.1 µM
TGI [49]: > 100 µM
GI50 [50]: > 100 µM
TGI [50]: > 100 µM
GI50 [51]: > 100 µM
TGI [51]: > 100 µM
GI50 [52]: 59.5 µM
TGI [52]: > 100 µM
GI50 [55]: 4.57 µM
TGI [55]: > 100 µM
